System: compound-treated mice
Assay: Neuropharmacological assay (SmartCube): behavioral activity signature and minimal effective dose
Assay type: in vivo
Details: for minimal effective dose: Mus musculus, ip, MED = dose having 50% or more total activity, read-out: Potency: minimal effective dose (MED), binned; for AD: ADHD (probability of activity signature) / AG: analgesic (probability of activity signature) / AX: anxiolytic (probability of activity signature) / CE: cognitive enhancer (probability of activity signature) / DP: anti-depressant (probability of activity signature) / MS: mood stabilizer (probability of activity signature) / PS: anti-psychotic (probability of activity signature) / SD: sedative hypnotic (probability of activity signature) / UN: uncharacterized CNS activity (probability of activity signature): i.p. 15 min before test, most efficacious dose(s)
Method in brief: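 Mice dosed i.p. 15 min before test, compound in N-methyl-2-pyrrolidone/PEG/propylene glycol, 3 doses; video-captured behavior matched to reference-drug signatures, giving per-class probabilities at most efficacious dose. MED from doses typically 0.3–30 mpk, defined as lowest dose with ≥50% total activity.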

Row | Compound | minimal effective dose [mg/kg] | AD: ADHD (probability of activity signature) | AG: analgesic (probability of activity signature) | AX: anxiolytic (probability of activity signature) | CE: cognitive enhancer (probability of activity signature) | DP: anti-depressant (probability of activity signature) | MS: mood stabilizer (probability of activity signature) | PS: anti-psychotic (probability of activity signature) | SD: sedative hypnotic (probability of activity signature) | UN: uncharacterized CNS activity (probability of activity signature)
1 | Cc1ccc(Cl)c2c1[C@H](N)COC2 (single isomer, unassigned) [Example 175] | < 3 | + (LOQ ≤ + <5%) | ++ (5% ≤ ++ <25%) | ++ (5% ≤ ++ <25%) | ++ (5% ≤ ++ <25%) | ++ (5% ≤ ++ <25%) | + (LOQ ≤ + <5%) | ++ (5% ≤ ++ <25%) | + (LOQ ≤ + <5%) | ++++ (50% ≤ ++++)
2 | Cc1ccc(Cl)c2c1[C@@H](N)COC2 (single isomer, unassigned) [Example 176] | 3 to 10 | + (LOQ ≤ + <5%) | + (LOQ ≤ + <5%) | ++ (5% ≤ ++ <25%) | ++ (5% ≤ ++ <25%) | ++ (5% ≤ ++ <25%) | + (LOQ ≤ + <5%) | ++ (5% ≤ ++ <25%) | + (LOQ ≤ + <5%) | ++++ (50% ≤ ++++)
3 | CC[C@H]1OCc2ccc(C)cc2[C@@H]1N (single isomer, unassigned) [Example 177] | < 3 | + (LOQ ≤ + <5%) | ++ (5% ≤ ++ <25%) | ++++ (50% ≤ ++++) | ++ (5% ≤ ++ <25%) | + (LOQ ≤ + <5%) | + (LOQ ≤ + <5%) | ++ (5% ≤ ++ <25%) | + (LOQ ≤ + <5%) | ++++ (50% ≤ ++++)
4 | CC[C@@H]1OCc2ccc(C)cc2[C@H]1N (single isomer, unassigned) [Example 178] | 10 to 30 | + (LOQ ≤ + <5%) | ++ (5% ≤ ++ <25%) | ++ (5% ≤ ++ <25%) | + (LOQ ≤ + <5%) | ++ (5% ≤ ++ <25%) | + (LOQ ≤ + <5%) | ++ (5% ≤ ++ <25%) | ++ (5% ≤ ++ <25%) | +++ (25% ≤ +++ <50%)
5 | CC[C@@H]1OCc2ccc(C)cc2[C@@H]1N (single isomer, unassigned) [Example 179] | < 3 | + (LOQ ≤ + <5%) | + (LOQ ≤ + <5%) | ++ (5% ≤ ++ <25%) | ++ (5% ≤ ++ <25%) | +++ (25% ≤ +++ <50%) | + (LOQ ≤ + <5%) | ++ (5% ≤ ++ <25%) | + (LOQ ≤ + <5%) | ++++ (50% ≤ ++++)
6 | CC[C@H]1OCc2ccc(C)cc2[C@H]1N (single isomer, unassigned) [Example 180] | 3 to 10 | + (LOQ ≤ + <5%) | ++ (5% ≤ ++ <25%) | ++ (5% ≤ ++ <25%) | ++ (5% ≤ ++ <25%) | ++ (5% ≤ ++ <25%) | + (LOQ ≤ + <5%) | ++ (5% ≤ ++ <25%) | + (LOQ ≤ + <5%) | ++++ (50% ≤ ++++)
7 | CC[C@@H]1OCc2ccccc2[C@@H]1N (single isomer, unassigned) [Example 191] | < 3 | + (LOQ ≤ + <5%) | ++ (5% ≤ ++ <25%) | ++ (5% ≤ ++ <25%) | ++ (5% ≤ ++ <25%) | ++ (5% ≤ ++ <25%) | + (LOQ ≤ + <5%) | ++ (5% ≤ ++ <25%) | ++ (5% ≤ ++ <25%) | ++++ (50% ≤ ++++)
8 | CC[C@H]1OCc2ccccc2[C@H]1N (single isomer, unassigned) [Example 192] | < 3 | + (LOQ ≤ + <5%) | + (LOQ ≤ + <5%) | ++ (5% ≤ ++ <25%) | ++ (5% ≤ ++ <25%) | + (LOQ ≤ + <5%) | + (LOQ ≤ + <5%) | ++ (5% ≤ ++ <25%) | ++ (5% ≤ ++ <25%) | ++++ (50% ≤ ++++)
9 | CC[C@H]1OCc2ccccc2[C@@H]1N (single isomer, unassigned) [Example 193] | 3 to 10 | + (LOQ ≤ + <5%) | ++ (5% ≤ ++ <25%) | ++ (5% ≤ ++ <25%) | ++ (5% ≤ ++ <25%) | + (LOQ ≤ + <5%) | + (LOQ ≤ + <5%) | ++ (5% ≤ ++ <25%) | ++ (5% ≤ ++ <25%) | ++++ (50% ≤ ++++)
10 | CC[C@@H]1OCc2ccccc2[C@@H]1N.Cl (single isomer, unassigned) [Example 198] | < 3 | + (LOQ ≤ + <5%) | + (LOQ ≤ + <5%) | ++ (5% ≤ ++ <25%) | ++ (5% ≤ ++ <25%) | ++ (5% ≤ ++ <25%) | + (LOQ ≤ + <5%) | +++ (25% ≤ +++ <50%) | + (LOQ ≤ + <5%) | +++ (25% ≤ +++ <50%)
11 | CC[C@H]1OCc2ccccc2[C@@H]1N.Cl (single isomer, unassigned) [Example 199] | < 3 | + (LOQ ≤ + <5%) | ++ (5% ≤ ++ <25%) | ++++ (50% ≤ ++++) | ++ (5% ≤ ++ <25%) | + (LOQ ≤ + <5%) | + (LOQ ≤ + <5%) | ++ (5% ≤ ++ <25%) | ++ (5% ≤ ++ <25%) | ++++ (50% ≤ ++++)
